According to patent US5354778A, “Antitumor compositions and methods of treatment” (priority 1993, dated 1994):
≈ marks a conversion by molar mass, not a printed value.

Legend:
CCRF-CEM cells = experiment: in vitro cytotoxicity against CCRF-CEM cells (50% inhibition of growth); type: cell-based, human; settings: 72 h incubation; for IC50: Homo sapiens, CCRF-CEM
Experimental: The in vitro CCRF-CEM data reported in column 5 of the Table was obtained using CCRF-CEM cells, a human leukemia cell line, (Foley et al., Cancer, 1965, 18, 522) were grown as previously described (Grindey, et al., J. Mol. Pharmacol., 1979, 16, 601) both references incorporated herein by reference. Dose-response curves were generated for various compounds to determine the concentration required for 50% inhibition of growth (IC50). Cluster plates were prepared in duplicate with the compound at various concentrations. Test compounds were dissolved initially in DMSO at a concentration of 4 mg/mL and further diluted with solvent to the desired concentration. Cells in Roswell Park Memorial Institute 1640 media supplemented with 10% dialyzed fetal bovine serum, and 25 mM HEPES buffer were added to the well an a final concentration of 4.8×10^4 cells/well in a total volume of 2.0 mL. After 72 h of incubation (95% air, 5% CO2), cell numbers were determined on a ZBI Coulter counter. Cell number for indicated controls at the end of incubation was usually (4-6)×10^5 cells/well.

6C3HED lymphosarcoma = experiment: in vivo activity against 6C3HED lymphosarcoma (Gardner lymphosarcoma, GLS) transplanted in C3H mice, oral; settings: for Toxic/Total (number of mice which died during test period/total number of mice in test group): 6C3HED tumor-bearing C3H mice; for inhibition in vivo at 150 mg/kg / inhibition in vivo at 300 mg/kg: Mus musculus, 6C3HED, po, 192 h, read-out: % Tumor Inhibition; for % Tumor Inhibition: 6C3HED tumor, C3H mice
Experimental: The compounds were tested in C3H mice bearing a 6C3HED lymphosarcoma, also known as the Gardner lymphosarcoma (GLS). The 6C3HED lymphosarcoma was obtained from the Division of Cancer Treatment, National Cancer Institute, Tumor Bank, maintained at E. G. and G. Mason Research (Worcester, Mass.). First passage tumor was stored in liquid nitrogen using standard techniques. The transplanted tumor was reestablished from the Tumor Bank every six months or as needed. The tumor was maintained by serial passage twice weekly in C3H mice.
In the procedure the tumor was removed from passage animals and minced into 1- to 3-mm square fragments using sterile techniques. Tumor pieces were checked for sterility using both Antibiotic Medium 1 and Brain Heart Infusion (Difco, Detroit, Mich.). Recipient mice were shaved and tumor pieces were implanted subcutaneously in the auxiliary region by trocar. Drug therapy on the appropriate schedule was initiated on the day after tumor implant. The compound being tested was mixed with 2.5 weight % of a polyoxyethylated oil known as "Emulphor EL-620" surfactant from GAF Chemicals Corporation (1:40 dilution of Empulphor in saline). All animals were weighed at the beginning and end of administration of the subject compounds. Food and water were provided ad libitum. The drug was administered orally in 0.5 ml of 2.5% Emulphor. Unless otherwise indicated, the compound was administered once per day for eight days. The tumor was measured the day after treatment ended with two dimensional measurements (width and length) of the tumor taken using Vernier calipers. Tumor weights were calculated from these measurements using the following formula:
(tumor weight in mg)=(width in mm)^2 ×(length in mm)/2
At least one control group of an equal number of mice was treated with the same volume of 2.5% Emulphor only. The percent inhibition was calculated by subtracting the ratio of the mean tumor size of the test group relative to the control group from 1 and multiplying the result by 100.
The results of administering some of the present compounds orally (unless otherwise indicated) to mice bearing a 6C3HED tumor are provided in the Table. In the Table, column 1 gives the example number corresponding to the preparation of the particular compound, column 2 provides the dose level, column 3 lists the percent inhibition of tumor growth, and column 4 gives the number of mice which died relative to the total number of animals in the group.

[1] = 150 mg/kg orally daily for eight days
[2] = 300 mg/kg orally daily for eight days

SMILES | IC50 (CCRF-CEM cells) [µg/mL] | Toxic/Total (number of mice which died during test period/total number of mice in test group) (6C3HED lymphosarcoma; [1]) | Toxic/Total (number of mice which died during test period/total number of mice in test group) (6C3HED lymphosarcoma; [2]) | inhibition in vivo at 150 mg/kg (6C3HED lymphosarcoma) [%] | inhibition in vivo at 300 mg/kg (6C3HED lymphosarcoma) [%] | in vitro (CCRF-CEM) IC50 (CCRF-CEM cells) [µg/mL] | % Tumor Inhibition (6C3HED lymphosarcoma; [1]) [%] | % Tumor Inhibition (6C3HED lymphosarcoma; [2])
Cc1cc(S(=O)(=O)NC(=O)Nc2ccc(Cl)cc2)cc(C)c1C [Example 1, N-[[(4-Chlorophenyl)amino]carbonyl]-3,4,5-trimethylbenzene sulfonamide] | 14.8 (≈ 41.9 µM) | 0/10 | 0/10 | 99 | 100 |  |  | 
Cc1cc(S(=O)(=O)NC(=O)Nc2ccc(Br)cc2)cc(C)c1C [Example 2, N-[[(4-Bromomhenyl)amino]carbonyl]-3,4,5-trimethylbenzenesulfonamide] | > 20 | 1/10 | 8/10 | 99 | 99 |  |  | 
Cc1cc(S(=O)(=O)NC(=O)Nc2ccc(C(F)(F)F)cc2)cc(C)c1C [Example 3, N-[[(4 -Trifluoromethylphenyl)amino]carbonyl]-3,4,5-trimethylbenzenesulfonamide] | > 20 | 0/10 | 4/10 | 100 | 100 |  |  | 
Cc1cc(S(=O)(=O)NC(=O)Nc2ccc(Cl)c(Cl)c2)cc(C)c1C [Example 4, N-[[(3,4-Dichlorophenyl)amino]carbonyl]-3,4,5-trimethylbenzenesulfonamide] | 13.5 (≈ 34.9 µM) | 0/10 | 1/10 | 38 | 74 |  |  | 
O=C(Nc1ccc(Cl)cc1)NS(=O)(=O)c1cc(Cl)c(Cl)c(Cl)c1 [Example 6, N-[[(4-Chlorophenyl)amino]carbonyl]-3,4,5-trichlorobenzene sulfonamide] | > 20 | 0/10 | 3/10 | 99 | 99 |  |  | 
Nc1c(Cl)cc(S(=O)(=O)NC(=O)Nc2ccc(Cl)cc2)cc1Cl [Example 7, N,[[(4-Chlorophenyl)amino]carbonyl]-4-amino-3,5-dichlorobenzenesulfonamide] |  | 0/10 | 10/10 |  |  | > 20 | 95 | Toxic
Cc1cc(S(=O)(=O)NC(=O)Nc2ccc(Cl)cc2)cc(C)c1Cl [Example 12, N-[[(4-Chlorophenyl)amino]carbonyl]-4-chloro-3,5-dimethylbenzenesulfonamide] | 15 (≈ 40.2 µM) | 0/10 | 1/10 | 44 | 84 |  |  | 
CN(C)c1c(Cl)cc(S(=O)(=O)NC(=O)Nc2ccc(Cl)cc2)cc1Cl [Example 14, N-[[(4-Chlorophenyl)amino]carbonyl]-4-(N,N,dimethylamino)-3,5-dichlorobenzene-sulfonamide] | 17 (≈ 40.2 µM) | 1/10 | 0/10 | 50 | 93 |  |  | 
COc1c(C)cc(S(=O)(=O)NC(=O)Nc2ccc(Cl)cc2)cc1C [Example 15, N-[[(4-Chlorophenyl)amino]carbonyl]-3,5-dimethyl-4-methoxybenzesulfonamide] | 16.5 (≈ 44.7 µM) | 1/10 | 0/10 | 55 | 87 |  |  | 
COc1cc(S(=O)(=O)NC(=O)Nc2ccc(Cl)cc2)cc(OC)c1OC [Example 16, N-[[(4-Chlorophenyl)amino]carbonyl]-3,4,5-trimethoxylbenzenesulfonamide] | > 20 | 0/10 | 0/10 | 6 | 35 |  |  | 
CNc1c(Br)cc(S(=O)(=O)NC(=O)Nc2ccc(Cl)cc2)cc1Br [Example 18, N-[[(4-Chlorophenyl)amino]carbonyl]-3,5-dibromo-4-(N-methylamino)benzenesulfonamide] | 19.3 (≈ 38.8 µM) | 1/10 | 0/10 | 26 | 47 |  |  | 
